Results from US11370816B2, “Histatins and method of use thereof” (THE BOARD OF TRUSTEES OF THE UNIVERSITY OF ILLINOIS, priority 2015, dated 2022).
Starred links: 1 amine or outer side, 2 acyl side, 3 side chain; linkers in the order of their positions; H or OH if unused. Non-standard residues stand in square brackets, D forms with d. No end group written: not given here. (CH2)6 = -(CH2)6- hydrocarbon linking residues, C(CCC[*:2])CC[*:1]; pS = N[C@@H](COP(=O)(O)O)C(=O)O

Assays:
Candida albicans = details: Jang, et al. (2008); cited from earlier work
[1] = system: human corneal epithelial cells; test: Benzalkonium chloride (BAK) injury model, LDH release; assay type: cell-based; details: 0.002% BAK
Protocol: Columns represent the mortality (mean±SD) of cells, total cellular death being 100% (Control).
One particularly useful model of dry eye disease and inflammatory ocular disease is the use of benzalkonium chloride (BAK) to induce cell death, inflammation and injury to ocular surfaces and corneal cells (Tressler, et al. (2011) Ocul. Surf. 9:140-58; Paimela, et al. (2012) Mol. Vis. 18:1189-1196). Briefly, human corneal epithelial cells were cultured under standard conditions. Cells were treated with native HTN5 (50 μM) or synthetic histatin (10 μM) in the presence or absence of 0.002% BAK. The permeability of cellular membranes following the exposures was determined by measuring the amount of released lactate dehydrogenase (LDH) enzyme from the cells. Maximum LDH release of cells was determined by lysing cells, and subsequently measuring the LDH from the culture medium. […] Accordingly, endogenous and synthetic histatins could be used to protect cells from injury, inflammation and cell death and are therefore of use in the treatment of dry eye disease.

[2] = Oudhoff, et al. (2008); cited from earlier work
[3] = system: Human umbilical vein endothelial cells (HUVECs); test: Tube formation assay, VEGF-induced angiogenesis; assay type: cell-based; details: VEGF 10 ng/mL, peptide 50 μM
Protocol: Tube formation assays were used to assess the anti-angiogenic property of synthetic histatin compared to native HTN1 and HTN2. Human umbilical vein endothelial cells (HUVECs) were suspended in diluted MATRIGEL for an overnight incubation and then subjected to a media change containing VEGF (10 ng/mL) (Goodwin (2007) Microvasc. Res. 74:172-83) alone or VEGF (10 ng/mL) in combination with HTN1, HTN2 or synthetic histatin (50 μM).

human corneal epithelium = test: Gene expression changes after synthetic histatin application; assay type: cell-based; details: synthetic histatin treatment
Source text: Pathophysiological analyses of dry eye disease indicate that the critical factors involved in the development of dry eye disease involve inflammatory pathways including Th17/IL-17, I-CAM, IL-8, TNFα/IL-1/IL-6/NFκB, IL-10, MMP9 (and other matrix metalloproteinases) and TLR4/HSP (Stevenson, et al. (2012) Arch. Ophthalmol. 130(1):90-100). In addition, it has been reported that Ephrin A is involved in the development of epitheliopathy, poor wound healing and corneal disease related to elevated sugar levels/diabetic and neuropathic ulcers of the ocular surface. Accordingly, it was determined what effect synthetic histatin application would have on the gene expression in human corneal epithelium. […] Th17/IL-17 pathway is a central and important pathway in dry eye disease (Stevenson, et al. (2012) Arch Ophthalmol. 130(1):90-100).

[4] = system: human corneal epithelium cells; test: In vitro scratch assay (cell migration, wound closure); assay type: cell-based; details: for Time to Closure: control no closure in 48 hours
Source text: A conventional in vitro scratch assay was used to measure cell migration in the presence of a synthetic histatin containing three metal binding domains from HTN5 and one wound healing domain (i.e., SEQ ID NO:29). A “scratch” was made in a monolayer of human corneal epithelium cells and time lapsed microscopy was used to capture images at the beginning and at regular intervals during cell migration to close the scratch.

MMP2 = target: T1, MMP2 (Homo sapiens, UniProt P08253); test: Zymography analysis of MMP2 inhibition; assay type: biochemical; details: pro-MMP2 activated with APMA, varying amounts of peptide
T1 sequence (P08253 110-660): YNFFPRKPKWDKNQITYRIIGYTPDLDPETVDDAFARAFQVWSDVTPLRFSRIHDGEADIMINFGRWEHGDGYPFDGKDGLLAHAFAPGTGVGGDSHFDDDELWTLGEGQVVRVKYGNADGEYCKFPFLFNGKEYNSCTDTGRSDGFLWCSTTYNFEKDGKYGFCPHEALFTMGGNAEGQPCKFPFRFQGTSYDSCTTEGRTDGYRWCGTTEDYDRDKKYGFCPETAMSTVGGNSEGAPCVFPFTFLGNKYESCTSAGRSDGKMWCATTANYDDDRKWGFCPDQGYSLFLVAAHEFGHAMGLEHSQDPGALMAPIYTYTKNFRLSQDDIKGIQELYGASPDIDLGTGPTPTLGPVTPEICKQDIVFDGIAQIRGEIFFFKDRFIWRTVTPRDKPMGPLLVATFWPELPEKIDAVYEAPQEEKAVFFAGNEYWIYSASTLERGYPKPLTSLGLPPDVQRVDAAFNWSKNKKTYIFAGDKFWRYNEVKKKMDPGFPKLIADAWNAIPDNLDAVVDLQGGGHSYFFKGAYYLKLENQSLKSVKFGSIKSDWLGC
Protocol: FIG. 1 show zymographic analysis of synthetic histatin inhibitory activity. Experiments included pro-MMP2 (100 ng; “−Ve”); activation of Pro-MMP2 with APMA (1 mM; “+Ve”); inclusion of a classic matrix metalloproteinase inhibitor, GM6001 (200 nM; “Inh”); and varying amounts of a synthetic histatin containing three metal binding domains from endogenous HTN5 and a wound healing domain from endogenous HTN1 (“H-1”). The protein ladder is shown on the right.
Zymography analysis of a synthetic histatin containing three metal binding domains from HTN5 and one wound healing domain (i.e., SEQ ID NO:29) was carried out using conventional methods. See, e.g., Thomadaki, et al. (2013) Oral Dis. 19(8):781-8.

[5] = Oppenheim, et al. (2012); cited from earlier work

Substance: AKRHHGYKRKFH [P-113]
- fungicidal activity (Candida albicans): exhibits fungicidal activity

Substance: DSHAKRHHGYKRKFHEKHHSHRGY [HTN5, endogenous (native) histatin 5, reference compound]
- cell death (released LDH) ([1]; 50 μM peptide): statistically significant reduction in cell death
- wound closure activity in vitro [2]: inactivity

Substance: DSHAKRHHGYKRKFHEKHHSHRGYRSNYLYDN [HTN3, endogenous (native) histatin 3]
- wound closure activity in vitro [2]: exhibit wound closure activities in vitro

Substance: DSpHEKRHHGYRRKFHEKHHSHREFPFYGDYGSNYLYDN (D[pS]HEKRHHGYRRKFHEKHHSHREFPFYGDYGSNYLYDN) [HTN1, endogenous (native) histatin 1]
- wound closure activity in vitro [2]: exhibit wound closure activities in vitro
- formation of capillary-like structures / inhibition of angiogenesis [3]: inhibition of angiogenesis

Substance: HEKHH-(CH2)6-HEKHH-(CH2)6-HEKHH-(CH2)6-YGDYGSNYLYDN (HEKHH[(CH2)6]HEKHH[(CH2)6]HEKHH[(CH2)6]YGDYGSNYLYDN) [synthetic histatin]
- cell death (released LDH) ([1]; 10 μM peptide): statistically significant reduction in cell death
- expression of genes related to MMP activity (human corneal epithelium): reduced
- expression of several members of the TNFα/IL-1/IL-6/NFKB pathway (human corneal epithelium): significant reduced
- genes of the IL-10 pathway (62 genes) affected (human corneal epithelium): 6
- genes of the TLR4/HSP pathway (54 genes) significantly affected (human corneal epithelium): 5
- genes of the Th17/IL-17 pathway (44 genes) with significant changes in gene expression (human corneal epithelium): 7
- formation of capillary-like structures / inhibition of angiogenesis [3]: did not form such structures
- Time to Closure ([4]; 1 μM synthetic histatin): 48 h
- Time to Closure ([4]; 10 μM synthetic histatin): 22 h
- wound healing (reduction in time to wound closure) ([4]; scratch in monolayer, time lapsed microscopy): notable enhancement of wound healing
- inhibition of MMP2 activity (MMP2): inhibited MMP2 activity in a dose-dependent manner

Substance: RKFHEKHHSHREFPFYGDYGSNYLYDN [HTN2, endogenous (native) histatin 2]
- formation of capillary-like structures / inhibition of angiogenesis [3]: inhibition of angiogenesis

Substance: RKFHEKHHSHRGYR [SEQ ID NO:53]
- fungicidal activity [5]: exhibit fungicidal activity
